A word on the IC50: it is the concentration at which inhibition is half-maximal. Low values mean inhibition by little substance, high ones a need for much substance. For orientation: AUC(0-t) means the area under the concentration-time curve up to a stated or last time point. By Tmax is commonly meant the time at which the peak concentration occurs.

The target of one data set is T1, FGFR1 protein kinase (Homo sapiens, UniProt P11362).
T1 construct: purchased Life technology
As to the kind of experiment: In vitro enzyme activity test, Z′-LYTE Assay, FGFR1 enzymatic reaction. It counts as biochemical. The settings on record: Z′-LYTE detection; 25 μM ATP. The procedure: (§1) The inhibitory effects of the compounds on FGFR4 kinases were assessed by detecting the enzymatic activities through Z′-LYTE® Assay, with the IC50 value of the compound as the indicator. This activity test was performed by Life technology.
(§2) The test compounds were diluted in a concentration gradient of 3-times, the final concentrations were 10 concentrations ranging from 10 μM to 0.5 nM, with double hole for each concentration; the content of DMSO in the detection reaction was 1%.
FGFR1 Enzymatic Reaction:
1 nM FGFR1 protein kinase, 2 μM Tyr4 peptide, 25 μM ATP, 50 mM HEPES (pH 7.5), 10 mM MgCl2, 1 mM EGTA, 0.01% BRIJ-35, 2 mM MnCl2, 1 mM DTT. The detection plate was Black Proxiplate 384-Plus plate (PerkinElmer), reaction conducted at room temperature for 60 minutes, and the reaction system was 10μμL.
(§3) To the kinase reaction solution was added 5 μL Development reagent B (1:64) to stop the reaction and incubated at 23° C. for 60 minutes, reading the plate with Envision instrument.
(§4) Data was transformed into the phosphorylation rate and the inhibitory rate by curve fitting with Model 205 in XLFIT (iDBS) to obtain the IC50 data of the compounds. It was set as 0% if the bottom of the curve was not in the range of −20% to 20%; otherwise it was set as 100% if the top of the curve was not in the range of 70% to 130%.

A further data set deals with T2, FGFR4 kinases (Homo sapiens, UniProt P22455).
T2 construct: purchased Life technology
T2 sequence (P22455 22-802): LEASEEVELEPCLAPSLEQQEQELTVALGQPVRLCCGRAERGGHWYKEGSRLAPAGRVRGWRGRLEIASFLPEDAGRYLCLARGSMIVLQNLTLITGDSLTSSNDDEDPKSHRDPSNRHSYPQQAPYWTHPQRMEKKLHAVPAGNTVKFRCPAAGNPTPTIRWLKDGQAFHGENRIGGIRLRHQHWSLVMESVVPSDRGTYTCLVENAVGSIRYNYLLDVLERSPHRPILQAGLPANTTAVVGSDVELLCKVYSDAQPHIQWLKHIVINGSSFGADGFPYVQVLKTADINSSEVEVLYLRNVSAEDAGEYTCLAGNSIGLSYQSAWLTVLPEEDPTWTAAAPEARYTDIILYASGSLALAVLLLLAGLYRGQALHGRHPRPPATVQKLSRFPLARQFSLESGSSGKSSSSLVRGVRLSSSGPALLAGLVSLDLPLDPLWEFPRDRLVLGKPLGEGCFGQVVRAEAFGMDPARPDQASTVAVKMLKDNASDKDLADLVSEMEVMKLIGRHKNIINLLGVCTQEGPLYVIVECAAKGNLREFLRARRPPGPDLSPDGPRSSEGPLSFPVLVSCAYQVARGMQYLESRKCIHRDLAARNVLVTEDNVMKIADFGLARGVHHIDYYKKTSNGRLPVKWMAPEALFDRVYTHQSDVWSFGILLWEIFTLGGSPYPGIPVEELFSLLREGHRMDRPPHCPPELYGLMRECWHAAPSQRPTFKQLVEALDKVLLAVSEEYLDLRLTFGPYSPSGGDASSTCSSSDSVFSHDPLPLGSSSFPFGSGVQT
Description: In vitro enzyme activity test, Z′-LYTE Assay, FGFR4 enzymatic reaction. The class given is biochemical. The note with it: for IC50: Z′-LYTE detection, 150 μM ATP. How it is done: as §1, §2
FGFR4 Enzymatic Reaction:
[…] The detection plate was Bar-coded Corning, low volume NBS, black 384-well plate, reaction conducted at room temperature for 60 minutes, and the reaction system was 10μμL.
as §3, §4

Data set [1] is described as follows: Pharmacokinetic evaluation in mice (IV and oral gavage). The class given is in vivo, female Balb/c nude mice. The note with it: for F (bioavailability; oral absorption ratio): PO gavage 10 mg/kg vs IV 2 mg/kg; for F (bioavailability; oral absorption ratio) / AUC(0-t) / clearance / half-life / Vd / Cmax / Tmax: female Balb/c nude mice; for AUC(0-t) / clearance / half-life / Vd / Cmax / Tmax: mouse, plasma; for clearance: read-out: Cl (plasma clearance); for half-life: read-out: T1/2 (elimination half-life) (converted); for Vd: read-out: Vdss (steady-state apparent volume of distribution); for Cmax: read-out: Cmax (peak concentration); for Tmax: read-out: Tmax (time to peak). How it is done:
[…] The test compound suspended in the corresponding solvent at 1 mg/ml was administered by gavage to female Balb/c nude mice (fasted overnight, at an age of 7-9 weeks), with a dosage of 10 mg/kg. Two groups of animals were both blood sampled about 30 μL from jugular vein or tail vein at 0.0833, 0.25, 0.5, 1.0, 2.0, 4.0, 6.0, 8.0 and 24 h post-administration, which was placed into an anticoagulant tube charged with EDTA-K2, and plasma was separated by centrifugation. Plasma concentrations were determined by LC-MS/MS process using WinNonlin™ Version 6.3 (Pharsight, Mountain View, Calif.) pharmacokinetic software, calculating the related pharmacokinetic parameters with a linear logarithmic trapezoidal method for […] models.

In data set [2] the test system is Hep3B Transplantation Models. Description: Tumor growth inhibition (TGI), antitumor activity test of mice in vivo. The settings on record: Hep3B transplantation model. The procedure:
The evolutionary growth potential of a tumor was assessed by the relationship between the volume of the tumor and time. The long axis (L) and short axis (W) of a subcutaneous tumor were determined by a caliper twice a week, the tumor volume (TV) was calculated by the formula of ((L×W^2)/2). TGI was calculated by the difference value between the median of tumor volumes of mice in the solvent group and the median of tumor volumes of mice in the drug group, and represented by the percentage accounting for the median of tumor volumes in the solvent control group,
Calculated by the following formula: % TGI=((the median of tumor volume (control group)−the median of tumor volume (dosing group))/the median of tumor volume (control group))×100%
The original statistical analysis was completed by the analysis of repeated variance determination. Subsequently, multiple comparisons were performed by a Scheffe psot hoc experimental method. Single solvent (0.5% methylcellulose+1% aqueous solution of Tween) was the negative control.

T1 sequence (P11362 22-822): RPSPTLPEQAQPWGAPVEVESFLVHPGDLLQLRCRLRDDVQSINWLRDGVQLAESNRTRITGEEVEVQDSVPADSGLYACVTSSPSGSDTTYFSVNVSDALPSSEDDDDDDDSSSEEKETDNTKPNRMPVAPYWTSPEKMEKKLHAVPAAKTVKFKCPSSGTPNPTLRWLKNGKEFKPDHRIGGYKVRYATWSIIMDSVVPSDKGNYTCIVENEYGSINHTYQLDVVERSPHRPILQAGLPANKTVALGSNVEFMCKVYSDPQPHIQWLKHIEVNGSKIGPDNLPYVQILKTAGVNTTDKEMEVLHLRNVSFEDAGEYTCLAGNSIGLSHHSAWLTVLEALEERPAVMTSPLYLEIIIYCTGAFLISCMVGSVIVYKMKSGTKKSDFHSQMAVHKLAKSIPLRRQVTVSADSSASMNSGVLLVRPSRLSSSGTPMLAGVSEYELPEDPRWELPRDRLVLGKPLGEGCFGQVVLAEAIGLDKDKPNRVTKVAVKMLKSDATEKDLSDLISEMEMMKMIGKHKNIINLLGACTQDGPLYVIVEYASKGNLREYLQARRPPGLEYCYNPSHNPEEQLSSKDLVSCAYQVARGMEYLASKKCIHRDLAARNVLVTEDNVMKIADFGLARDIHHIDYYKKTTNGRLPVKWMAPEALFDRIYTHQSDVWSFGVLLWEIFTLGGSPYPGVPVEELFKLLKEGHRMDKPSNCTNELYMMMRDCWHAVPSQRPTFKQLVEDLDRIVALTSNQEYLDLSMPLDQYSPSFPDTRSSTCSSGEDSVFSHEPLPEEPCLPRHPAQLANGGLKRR

As for `C=CC(=O)NC1COCC1Nc1ncc(C=C(F)c2c(Cl)c(OC)cc(OC)c2Cl)cn1` (single isomer, unassigned) [Example 21], the midpoint of inhibition against FGFR1 protein kinase, the IC50, lay at 1460 nM. The compound further gave an IC50 at FGFR4 kinases of 17 nM. In data set [1], the “F (bioavailability; oral absorption ratio)” value is recorded as 20.4%. In data set [1] (IV tail vein 2 mg/kg), the AUC(0-t) is 1.42 µM·h, the clearance came out at 48.2 mL/min/kg, the half-life is 17.5 min and the Vd stood at 0.723 L/kg. In data set [1] (PO gavage 10 mg/kg), the AUC(0-t) is 1.07 µM·h, the Cmax was found to be 1120 nM and the Tmax stood at 15 min. Further, in data set [2] (100 mg/kg, BID), the “TGI % (dosing on Day 21 for the last time)” value (shortened to “TGI %”) stood at 106%.

Take `C=CC(=O)Nc1cccc(C)c1Nc1ncc(/C(F)=C/c2c(Cl)c(OC)cc(OC)c2Cl)cn1` [Example 2]: the half-inhibitory concentration (IC50) is over 10000 nM against FGFR1 protein kinase and 84 nM against FGFR4 kinases.

For `C=CC(=O)Nc1cccc(F)c1Nc1ccc(/C(F)=C/c2c(Cl)c(OC)cc(OC)c2Cl)cn1` [Example 6], the figures for the IC50 on FGFR1 protein kinase and against FGFR4 kinases were over 10000 nM and 124 nM, respectively.

On to `C=CC(=O)Nc1cccc(C)c1Nc1ccc(/C=C(\F)c2c(Cl)c(OC)cc(OC)c2Cl)cn1` [Example 7], for which the figures for the IC50 against FGFR1 protein kinase and against FGFR4 kinases were over 10000 nM and 31 nM, respectively. Besides, the “TGI %” value in data set [2] (30 mg/kg BID) came to 108%.

As to `C=CC(=O)Nc1cc(N2CCN(CC)CC2)cc(C)c1Nc1ncc(/C(F)=C/c2c(Cl)c(OC)cc(OC)c2Cl)cn1` [Example 11], the IC50 came to 4980 nM against FGFR1 protein kinase and 20.1 nM against FGFR4 kinases.

As to `C=CC(=O)Nc1cc(N2CCN(CC)CC2)c(OC)cc1Nc1ncc(/C=C(\F)c2c(Cl)c(OC)cc(OC)c2Cl)cn1` [Example 12], the results for the IC50 against FGFR1 protein kinase and at FGFR4 kinases were 25.8 nM and 10.9 nM, respectively.

For `C=CC(=O)Nc1ccc(N2CCN(CC)CC2)c(C)c1Nc1ncc(/C=C(\F)c2c(Cl)c(OC)cc(OC)c2Cl)cn1` [Example 13], the IC50 at FGFR1 protein kinase amounted to 613 nM; on FGFR4 kinases it was 30.1 nM.

`C=CC(=O)Nc1ccc(OCCN2CCN(C)CC2)c(C)c1Nc1ncc(/C=C(\F)c2c(Cl)c(OC)cc(OC)c2Cl)cn1` [Example 14]: the results for the IC50 against FGFR1 protein kinase and at FGFR4 kinases were 182 nM and 17.7 nM, respectively.

Regarding `C=CC(=O)Nc1cc(N2CCN(CC)CC2)cc(C)c1Nc1ncc(/C=C(\F)c2c(Cl)c(OC)cc(OC)c2Cl)cn1` [Example 15], the values for the IC50 against FGFR1 protein kinase and against FGFR4 kinases were 813 nM and 1.58 nM, respectively. In addition, the “FGFR4 inhibitory activity enhancement vs control example” value at FGFR4 kinases (ratio to control example 2) was about 9 times.

Take `C=CC(=O)N[C@H]1CCOC[C@H]1Nc1ncc(/C=C(\F)c2c(Cl)c(OC)cc(OC)c2Cl)cn1` [Example 16]: the IC50 against FGFR1 protein kinase amounted to 2520 nM. The IC50 at FGFR4 kinases worked out at 67.5 nM. Further, the “stability enhanced (plasma clearance) compared with the control example 4” value in data set [1] (IV, mice, ratio to control example 4) worked out at 3 times. In addition, in data set [1] (IV tail vein 2 mg/kg), the AUC(0-t) turned out to be 2.8 µM·h, the clearance is 23.9 mL/min/kg, the half-life was 40.6 min and the Vd amounted to 1.2 L/kg. Also, in data set [1] (PO gavage 10 mg/kg), the AUC(0-t) turned out to be 5.64 µM·h, the Cmax came out at 3290 nM and the Tmax turned out to be 30 min. Further, the “TGI %” value in data set [2] (100 mg/kg, BID) was 89%.

With `C=CC(=O)Nc1cccc(F)c1Nc1ccc(/C=C(\F)c2c(Cl)c(OC)cc(OC)c2Cl)cn1` [Example 18], the 50% inhibitory concentration (IC50) against FGFR1 protein kinase stood at 1900 nM; at FGFR4 kinases, 105 nM.

Regarding `C=CC(=O)N[C@H]1COC[C@H]1Nc1ncc(/C=C(\F)c2c(Cl)c(OC)cc(OC)c2Cl)cn1` [Example 19], the IC50 stood at 3100 nM against FGFR1 protein kinase and 47 nM against FGFR4 kinases. For the same compound, at FGFR4 kinases (ratio to control example 3), the “FGFR4 inhibitory activity enhancement vs control example” value is about 9 times.

At FGFR1 protein kinase, `C=CC(=O)Nc1cccc(C)c1Nc1ncc(/C=C(\F)c2c(Cl)c(OC)cc(OC)c2Cl)cn1` [Example 24] registered a concentration for half-maximal inhibition (IC50) of 2100 nM. The compound also yielded an IC50 against FGFR4 kinases of 10 nM. The “stability enhanced (plasma clearance) compared with the control example 5” value in data set [1] (IV, mice, ratio to control example 5) is reported as 2 times. Further, in data set [1] (IV, mice, ratio to control example 6), the “stability enhanced (plasma clearance) compared with the control example 6” value is recorded as “more than 3 times”. In addition, the “F (bioavailability; oral absorption ratio)” value in data set [1] is 14.8%. Moreover, in data set [1] (IV tail vein 2 mg/kg), the AUC(0-t) amounted to 1.32 µM·h, the clearance worked out at 50 mL/min/kg, the half-life is 32.9 min and the Vd turned out to be 1.82 L/kg. Moreover, in data set [1] (PO gavage 10 mg/kg), the AUC(0-t) was 0.962 µM·h, the Cmax is 282 nM and the Tmax amounted to 30 min.

Consider `C=CC(=O)N[C@@H]1CCC[C@@H]1Nc1ncc(/C=C(\F)c2c(Cl)c(OC)cc(OC)c2Cl)cn1` [Example 25], for which the IC50 against FGFR1 protein kinase came out at 355 nM; at FGFR4 kinases it was 476 nM.

Take `C=CC(=O)Nc1cc(Cl)cc(F)c1Nc1ccc(/C=C(\F)c2c(Cl)c(OC)cc(OC)c2Cl)cn1` [Example 28]: the IC50 against FGFR1 protein kinase was 3210 nM; against FGFR4 kinases, 263 nM.

Regarding `C=CC(=O)Nc1ccc(Cl)c(C)c1Nc1ccc(/C=C(\F)c2c(Cl)c(OC)cc(OC)c2Cl)cn1` [Example 31], the values for the IC50 against FGFR1 protein kinase and on FGFR4 kinases were over 10000 nM and 560 nM, respectively.

Regarding `C=CC(=O)Nc1ccc(OC)c(C)c1Nc1ncc(/C=C(\F)c2c(Cl)c(OC)cc(OC)c2Cl)cn1` [Example 35], the figures for the IC50 on FGFR1 protein kinase and against FGFR4 kinases were 174 nM and 23 nM, respectively.

(Values after patent US11008292B2, “FGFR4 inhibitor and preparation method and use thereof” (GUANGDONG ZHONGSHENG PHARMACEUTICAL CO., LTD, priority 2016, dated 2021).)
